From PubChem BioAssay (NCI)
Where “and” joins values, the source holds several entries; their conditions need not be identical. Equal entries are not always repeated.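 1) Cells in 96-well plates. 2) Compound, 48 h, 5 concentrations. 3) Linear interpolation between surrounding doses. 4) Unreached endpoint = highest concentration. GI50 is the concentration that inhibits growth by half. TGI denotes the concentration required for complete inhibition of growth.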

How the values were obtained:
Assay in all cases: NCI anticancer screen, dose series, 48 h
SNB-75 CNS = tested on: SNB-75 CNS
COLO 205 colon = tested on: COLO 205 colon
SK-MEL-5 melanoma = tested on: SK-MEL-5 melanoma
HOP-92 NSCLC = tested on: HOP-92 NSCLC
LOX IMVI melanoma = tested on: LOX IMVI melanoma
OVCAR-3 ovarian = tested on: OVCAR-3 ovarian
HT29 colon = tested on: HT29 colon
HS 578T breast = tested on: HS 578T breast
SF-295 CNS = tested on: SF-295 CNS
BT-549 breast = tested on: BT-549 breast

Molecule `COc1cc2ccc3c4cc(OC)c(OC)cc4c[n+](C)c3c2cc1O` has a TGI (SNB-75 CNS) greater than 100 µM, a TGI (COLO 205 colon) greater than 100 µM and a TGI (SK-MEL-5 melanoma) greater than 100 µM. The TGI (HOP-92 NSCLC) was greater than 100 µM, the TGI (LOX IMVI melanoma) was greater than 100 µM and the TGI (OVCAR-3 ovarian) was greater than 100 µM. For the same molecule, the TGI (HT29 colon) was greater than 100 µM.
Molecule `Cc1nc(N)c(N2CCN(C#N)CC2)c(=O)[nH]1` has a TGI (SNB-75 CNS) greater than 100 µM, a TGI (HS 578T breast) greater than 100 µM and a TGI (COLO 205 colon) greater than 100 µM. The TGI (SF-295 CNS) was greater than 100 µM, the TGI (LOX IMVI melanoma) was greater than 100 µM and the TGI (BT-549 breast) was greater than 100 µM. It also gave a TGI (OVCAR-3 ovarian) greater than 100 µM and a TGI (HT29 colon) greater than 100 µM.
`CSCC[C@@H](NC(=O)[C@H](CC(C)C)NC(=O)C(Cc1cnc[nH]1)NC(=O)CNC(=O)[C@@H](NC(=O)[C@H](C)NC(=O)[C@H](Cc1c[nH]c2ccccc12)NC(=O)[C@H](CCC(N)=O)NC(=O)[C@@H](N)CC(N)=O)C(C)C)C(N)=O` (stereo not given in full) showed a TGI (SNB-75 CNS) greater than 100 µM, a TGI (COLO 205 colon) greater than 100 µM and a TGI (SK-MEL-5 melanoma) greater than 100 µM. For the same molecule, the TGI (HOP-92 NSCLC) was greater than 100 µM, the TGI (SF-295 CNS) was greater than 100 µM and the TGI (LOX IMVI melanoma) was greater than 100 µM. The TGI (OVCAR-3 ovarian) was greater than 100 µM and the TGI (HT29 colon) was greater than 100 µM.
`CN(C)CCn1c(=O)c2ccc(NCCCN(C)CCCNc3ccc4c(=O)n(CCN(C)C)c(=O)n5c6ccc(O)cc6c(=O)c3c45)c3c(=O)c4cc(O)ccc4n(c1=O)c23` gave a TGI (SNB-75 CNS) of 0.0627 µM, a TGI (COLO 205 colon) of 0.187 µM and a TGI (SK-MEL-5 melanoma) of 0.171 µM. The TGI (SF-295 CNS) was 2.33 µM, the TGI (LOX IMVI melanoma) was 0.0619 µM and the TGI (BT-549 breast) was 0.691 µM. It also gave a TGI (HT29 colon) of 1.05 µM.
`CCOC(=O)c1c(N2CCCC2)[nH]c(=O)c(C(c2ccc(OC)cc2)c2c(O)c(C(=O)OCC)c(N3CCCC3)[nH]c2=O)c1O` gave a TGI (SNB-75 CNS) of 69 µM, a TGI (HS 578T breast) greater than 100 µM and a TGI (COLO 205 colon) greater than 100 µM. It also gave a TGI (SK-MEL-5 melanoma) greater than 100 µM, a TGI (HOP-92 NSCLC) of 58.6 µM and a TGI (SF-295 CNS) greater than 100 µM. It also gave a TGI (LOX IMVI melanoma) greater than 100 µM, a TGI (BT-549 breast) greater than 100 µM and a TGI (OVCAR-3 ovarian) greater than 100 µM.
With `CN(C)C(=O)C(F)(F)C(c1ccc(F)cc1)C1C(=O)N(C)C(=O)N(C)C1=O` (stereo not given) the TGI (SNB-75 CNS) was greater than 100 µM, the TGI (COLO 205 colon) was greater than 100 µM and the TGI (SK-MEL-5 melanoma) was greater than 100 µM. The TGI (HOP-92 NSCLC) was greater than 100 µM, the TGI (SF-295 CNS) was greater than 100 µM and the TGI (LOX IMVI melanoma) was greater than 100 µM. The TGI (BT-549 breast) was greater than 100 µM and the TGI (OVCAR-3 ovarian) was greater than 100 µM.
With `Cn1nc(-c2ccc(S(=O)(=O)/N=C(\NN)Nc3ccc(Cl)cc3)s2)cc1C(F)(F)F` the TGI (SNB-75 CNS) was 29.9 µM, the TGI (COLO 205 colon) was 37.6 µM and the TGI (SK-MEL-5 melanoma) was 35.9 µM. It also gave a TGI (HOP-92 NSCLC) of 40.2 µM, a TGI (SF-295 CNS) of 31.3 µM and a TGI (LOX IMVI melanoma) of 34.2 µM. It also gave a TGI (BT-549 breast) of 33.3 µM, a TGI (OVCAR-3 ovarian) of 36.4 µM and a TGI (HT29 colon) of 30.4 µM.
For `Cc1c2ccnc(C(N)=O)c2c(C)c2c1[nH]c1ccccc12`, the GI50 (SNB-75 CNS) was 13.8 µM, the TGI (SNB-75 CNS) was 24.6 µM and 39.9 µM and the TGI (COLO 205 colon) was 50 µM and > 100 µM. The TGI (SK-MEL-5 melanoma) was 13.6 µM, the GI50 (HOP-92 NSCLC) was 2.96 µM and 11.5 µM and the TGI (HOP-92 NSCLC) was 12 µM and 53.2 µM. The GI50 (SF-295 CNS) was 4.37 µM, the TGI (SF-295 CNS) was 25.6 µM and 22.3 µM and the TGI (LOX IMVI melanoma) was 21.2 µM. The GI50 (OVCAR-3 ovarian) was 5.94 µM, the TGI (OVCAR-3 ovarian) was 34.8 µM and 32.1 µM and the GI50 (HT29 colon) was 4.12 µM. For the same molecule, the TGI (HT29 colon) was 23.2 µM and 20.4 µM.
`CC(=O)NNc1nc(C)c(C(=O)NNC(=O)C(=O)Nc2ccc([N+](=O)[O-])cc2[N+](=O)[O-])s1` was tested, and the TGI (SNB-75 CNS) was greater than 100 µM, the TGI (COLO 205 colon) was greater than 100 µM and the TGI (SK-MEL-5 melanoma) was greater than 100 µM. For the same molecule, the TGI (HOP-92 NSCLC) was greater than 100 µM, the TGI (SF-295 CNS) was greater than 100 µM and the TGI (LOX IMVI melanoma) was greater than 100 µM. It also gave a TGI (HT29 colon) greater than 100 µM.
For `Nc1ncnc2c1nnn2C1C=CC(CP(=O)(O)O)C1` (stereo not given), the TGI (HS 578T breast) was greater than 100 µM, the TGI (COLO 205 colon) was greater than 100 µM and the TGI (SK-MEL-5 melanoma) was greater than 100 µM. The TGI (SF-295 CNS) was greater than 100 µM, the TGI (LOX IMVI melanoma) was greater than 100 µM and the TGI (OVCAR-3 ovarian) was greater than 100 µM. For the same molecule, the TGI (HT29 colon) was greater than 100 µM.
`Cc1ccc2c(c1C)C(=O)C1(Cc3cc4c(cc3C1=O)CCC4)C2` (stereo not given) was tested, and the TGI (SNB-75 CNS) was greater than 100 µM, the TGI (HS 578T breast) was greater than 100 µM and the TGI (COLO 205 colon) was greater than 100 µM. The TGI (SK-MEL-5 melanoma) was greater than 100 µM, the TGI (HOP-92 NSCLC) was greater than 100 µM and the TGI (SF-295 CNS) was greater than 100 µM. The TGI (BT-549 breast) was greater than 100 µM, the TGI (OVCAR-3 ovarian) was greater than 100 µM and the TGI (HT29 colon) was greater than 100 µM.
With `COc1ccc(C)cc1N1C(=O)C2ON(Cc3ccc(CC(N)=O)cc3)C(c3c4ccccc4c(Cl)c4ccccc34)C2C1=O` (stereo not given) the TGI (SNB-75 CNS) was 38.9 µM, the TGI (HS 578T breast) was greater than 100 µM and the TGI (HOP-92 NSCLC) was greater than 100 µM. The TGI (SF-295 CNS) was 69.1 µM, the TGI (LOX IMVI melanoma) was 54.7 µM and the TGI (BT-549 breast) was 74.5 µM. It also gave a TGI (OVCAR-3 ovarian) greater than 100 µM and a TGI (HT29 colon) of 40.9 µM.
